Measured values taken from patent publication US7947279B2, “Peptide having hydrolase activity” (The Trustees of Columbia University in the City of New York, priority 2005, dated 2011).
“Also recorded” adds a separate entry of the source.

Assays:
[1] = system: CA1-LTP in hippocampal slices; test: CA1-LTP in hippocampal slices (theta-burst); format: cell-based, mouse
[2] = system: BST at the Schaffer collateral/CA1 connection of hippocampal slices; test: Basal synaptic transmission (BST) in hippocampal slices; format: cell-based, mouse
mice (WT and APP/PS1) = test: Contextual and cued fear conditioning; format: in vivo, mouse; settings: for freezing time in contextual learning: at 21 days
Experimental: Behavioral Studies: Fear conditioning was performed in a conditioning chamber as previously described (Bourtchuladze et al., 1994; Gong et al., 2004). For contextual and cued fear conditioning mice were placed in the conditioning chamber for 2 min before the onset of a discrete tone (CS) (a 30 sec sound at 2800 Hz and 85 dB). In the last 2 sec of the CS, mice were given a foot shock (US) of 0.50 mA for 2 sec through the bars of the floor. After the CS/US pairing, the mice were left in the conditioning chamber for another 30 sec and then placed back in their home cages. Freezing behavior, defined as the absence of all movement except for that necessitated by breathing, was scored using Freezeview software. To evaluate contextual fear learning, freezing was measured for 5 min in the chamber in which the mice were trained 24 hrs after training. To evaluate cued fear conditioning, following contextual testing, the mice were placed in a novel context (triangular cage with smooth flat floor and with vanilla odorant) for 2 min (pre-CS test), after which they were exposed to the CS for 3 min (CS test), and freezing was measured. To evaluate the contextual fear over time, mice were placed for 5 min in the chamber in which the mice were trained 7- 14- 21-days after training. Sensory perception of the shock was determined through threshold assessment. Each animal was placed individually into the conditioning chamber. […] Animal behavior was evaluated for the first visible response to the shock (flinch), the first extreme motor response (run/jump), and the first vocalized distress (scream). Threshold to flinching, jumping, and screaming was quantified for each animal by averaging of the shock intensity at which each animal manifested a behavioral response of that type to the foot shock. Visual, motor, and motivation skills were also tested with visible platform training by measuring the time and the speed to reach a visible platform placed within a pool filled with water (Gong et al., 2004). Both time to reach the platform and swimming speed were recorded and analyzed with a video tracking system (HVS-2020, HVS Image, UK). No difference was observed among different groups of mice in the experiments in which fear conditioning was tested both in the presence of LDN and TAT fusion proteins. To decide the time of administration of LDN, experiments were performed in which the inhibitor was injected intra-peritoneally at different intervals (4 hrs before, 1 hr before, 1 hr after and 4 hrs after) from the electric shock. During the training phase, no difference was found in the freezing of LDN- or vehicle-injected mice.

[3] = system: SY5Y neuroblastoma cells transfected with a degron CL1-GFP expression vector; test: Proteasome reporter assay (GFP^u); format: cell-based, human; settings: substance alone
Experimental: Proteasome reporter assays. In this cell line, human neuroblastoma SH-SY5Y cells were permanently transfected with reporter construct consisting of green fluorescent protein (GFP) conjugated at its C-terminus to a short degron sequence (CL-1) (Gilon et al., 1998). […] The SY5Y-GFP^u cells were grown in 1×DMEM (Invitrogen) supplemented with 15% fetal bovine serum (JRH), 1× penicillin/streptomycin (Gibco). After indicated treatments, GFP^u concentrations were assayed by densitometric analysis of immunoblots of total protein extracts (10 ug/lane) using monoclonal GFP antibodies (Santa Cruz Biotechnology) and visualized with HRP-conjugated secondary antibodies and ECL (Pierce). Loading equalization was normalized by probing blots with anti-ERK antibodies (Santa Cruz Biotechnology).

phospho-CREB at Ser-133 = test: Phospho-CREB (Ser-133) Western blot in hippocampal cultures; format: cell-based, rat; settings: LDN 10 μM
Experimental: Western Blotting: Protein levels were assessed using standard procedures. Protein extraction was performed using buffer with and without detergent. For the extraction of protein using detergent, hippocampal tissues and cultured hippocampal neurons (5 DIV) were homogenized in RIPA buffer (50 mM Tris-HCl pH 7.4, 1% Triton X-100, 1% sodium deoxycholate, 0.1% SDS, 150 mM sodium chloride, 10 mM sodium fluoride, 30 mM sodium pyrophosphate, 50 mM sodium orthovanadate) containing 1× complete protease inhibitor (Roche) and 1 mM phenylmethylsulfonyl fluoride (PMSF). For extraction of proteins without detergent, hippocampal extracts were homogenized with disposable dounce homogenizers in buffer A, containing 10 mM HEPES pH 7.3, 300 mM sucrose, protease 1× complete protease inhibitor (Roche) and PMSF. After centrifugation at 10,000×g supernatant proteins were resolved on a 8% or 4-20% gradient Tris-Glycine gel, transferred onto PVDF or nitrocellulose membrane and blocked in 5% skim milk in PBS-Tween 0.1% (PBS-T). Membranes were probed with primary antibodies, and after washing with PBS-T incubated with an appropriate HRP-conjugated secondary antibody. The following antibodies were used: mouse monoclonal anti-ubiquitin (Chemicon), rabbit polyclonal anti-pCREB (Upstate Biotech.), rabbit polyclonal anti-PKA-RIIα (Santa Cruz Biotech. Inc), mouse monoclonal anti-Uch-L1 (Novocastra), monoclonal mouse anti-HA (Santa Cruz Biotech. Inc), and anti-PKA IIα. Detection was performed using HRP-conjugated secondary antibodies (Pierce, Rockford, Ill.). To control loading and transfer, protein immunoreactivities were normalized against total extracellular signal-regulated protein kinases (ERK1/2) levels with a rabbit analyzed using a rabbit polyclonal anti-ERK1/2 antibody (Cell Signaling Technology, Inc). NIH IMAGE was used to analyze the scanned blots and quantify the intensity of the protein signals.
Preparation of Cell Cultures. Hippocampal cell cultures were prepared as previously described (Vitolo et al., 2002). In cell culture experiments fetuses at embryonic day 18 from timed pregnant Sprague-Dawley rats (Taconic Farms) were used. Fetuses were sacrificed and the hippocampi removed. Neurons were then dissociated, plated on 6 well-plates coated with poly-L-lysine and maintained in a defined serum-free medium containing minimum essential medium supplemented with N-2, glucose, albumin, pyruvic acid, antibiotics and antimycotics. […] 5 DIV cells were used for the experiments.

[4] = LDN 5 μM, 15 min, listed as LDN

## CC(=O)O/N=C1\C(=O)N(Cc2cc(Cl)ccc2Cl)c2ccc(Cl)cc21 [LDN-57444, reference compound]
[1]; LDN 1 μM, 2-4 hr, listed as LDN
  LTP: has no effect
[1]; LDN 2.7 μM, 2-4 hr, listed as LDN
  LTP: reduces CA1-LTP
[1]; LDN 5 μM for 2 hrs, 200 nM Aβ, listed as LDN
  LTP in Aβ-treated slices: does not further reduce potentiation; also recorded: did not further reduce LTP
[1]; LDN 5 μM for 2 hrs, listed as LDN
  LTP in APP/PS1 slices: does not further reduce potentiation; also recorded: did not further reduce LTP
[1]; LDN 5 μM, 15 min
  LTP: did not affect BST or LTP; also recorded: did not affect CA1-LTP
[1]; [4]
  LTP: did not affect basal synaptic transmission (BST) or LTP; also recorded: did not affect CA1-LTP
[1]; LDN 5 μM, 2 hrs
  LTP: blocked
[1]; LDN 5 μM, 2 hrs, listed as LDN
  LTP: diminished LTP; also recorded: reduced
[1]; LDN 5 μM, 4 hrs
  LTP: strongly reduced
[1]; LDN 5 μM, 4 hrs, listed as LDN
  LTP: reduced both; also recorded: strongly reduced
[1]; LDN-57444, 2 hour exposure
  LTP: approximately 70 % of vehicle treated slices
[1]; LDN-57444, 4 hour exposure
  LTP: ~65 % of vehicle treated slices
[1]; non-tetanized slices
  baseline transmission in slices without tetanic stimulation: did not affect baseline transmission
[2]; LDN 2.7 μM and 1 μM, 2-4 hr, listed as LDN
  BST: normal BST; also recorded: did not affect CA1-BST
[2]; LDN 5 μM, 15 min
  BST: did not affect BST or LTP; also recorded: did not affect CA1-BST
[2]; [4]
  BST: did not affect basal synaptic transmission (BST) or LTP; also recorded: does not affect CA1-BST
[2]; LDN 5 μM, 2 hrs
  BST: without affecting BST; also recorded: not affected
[2]; LDN 5 μM, 2 hrs, listed as LDN
  BST: without affecting BST; also recorded: not affected
[2]; LDN 5 μM, 4 hrs
  BST: strongly reduced
[2]; LDN 5 μM, 4 hrs, listed as LDN
  BST: reduced both; also recorded: strongly reduced
[2]; LDN-57444, 4 hour exposure
  BST: approximately 40 % of vehicle treated slices
Mice (WT and APP/PS1); LDN 0.4 mg/kg i.p.
  cued fear conditioning: did not show a difference
  freezing time in contextual learning: about 70 % of vehicle-treated mice
Mice (WT and APP/PS1); LDN 0.4 mg/kg i.p. 4 hrs after the electric shock, twenty-four hours later
  freezing time in contextual conditioning: 74 % of that of vehicle-treated mice
Mice (WT and APP/PS1); LDN 0.4 mg/kg i.p., listed as LDN
  freezing time in contextual learning: 70 % of vehicle-treated mice
Mice (WT and APP/PS1); LDN 0.4 mg/kg i.p., context at 1, 7, 14 and 21 days after training
  contextual conditioning performance: worsened contextual conditioning performance
Mice (WT and APP/PS1); LDN injected at 4 and 1 hour before the shock or at 1 hour after the shock
  contextual learning: failed to impair contextual learning
Mice (WT and APP/PS1); LDN- versus vehicle-injected mice
  freezing during the training phase: no difference
[3]
  GFP^u levels: much larger increase in GFP
phospho-CREB at Ser-133
  phospho-CREB enhancement / beneficial effect of TAT-HA-Uch-L1: blocked the beneficial effect of TAT-HA-Uch-L1; also recorded: did not allow the enhancement of phospho-CREB
phospho-CREB at Ser-133; listed as LDN
  phospho-CREB enhancement / beneficial effect of TAT-HA-Uch-L1: blocked the beneficial effect of TAT-HA-Uch-L1; also recorded: did not allow the enhancement of phospho-CREB
